# According to PMC9122626 (2020):
# Assays:
# [1] = system: human telomeric G4 DNA, dAGGG(TTAGGG)3 (DNA, G4) AGGGTTAGGGTTAGGGTTAGGG; assay: EMSA; settings: 30 μM G4; room temperature; 15-120 μM peptide
# [2] = system: human telomeric G4 DNA, dAGGG(TTAGGG)3 (DNA, G4) AGGGTTAGGGTTAGGGTTAGGG; assay: ITC; settings: Na+ 100 mM; 298.15 K; 64 μM DNA in cell, 700 μM peptide in syringe
# [3] = system: human telomeric G4 DNA, dAGGG(TTAGGG)3 (DNA, G4) AGGGTTAGGGTTAGGGTTAGGG; assay: intrinsic fluorescence titration; settings: 15 μM peptide; 0 to 18.16 μM G4; room temperature
# [4] = system: human telomeric G4 DNA, dAGGG(TTAGGG)3 (DNA, G4) AGGGTTAGGGTTAGGGTTAGGG; assay: time-resolved fluorescence (TCSPC); settings: 100 mM Na+; 10 mM Tris, pH 7.3, 25 °C; 5.5 μM peptide; 0 to 10.5 μM G4
# [5] = system: ds26 (DNA, duplex) CAATCGGATCGAATTCGATCCGATTG; assay: ITC; settings: Na+ 100 mM
# [6] = system: human telomeric G4 DNA, dAGGG(TTAGGG)3 (DNA, G4) AGGGTTAGGGTTAGGGTTAGGG; assay: CD titration; settings: Na+; aqueous buffer
# [7] = system: human telomeric G4 DNA, dAGGG(TTAGGG)3 (DNA, G4) AGGGTTAGGGTTAGGGTTAGGG; assay: thiazole orange displacement (fluorescence); settings: 298 K; thiazole orange displaced; 0.25 μM G4, 0.50 μM TO
smiles,measurement,setting,value
N[C@@H](Cc1ccc(O)cc1)C(=O)N[C@@H](CCC(=O)N[C@@H](CCC(=O)O)C(=O)O)C(=O)N[C@@H](CCC(=O)O)C(=O)O (racemic),binding,[1],yes
same,Ka,[2],1.1e+06 M⁻¹
same,binding,[3],yes
same,binding,[4],yes
same,Ka,[5],9600 M⁻¹
same,binding,[6],yes
same,IC50,[7],~ 8.4 μM
